Like-named read-outs stand apart in the source and are kept apart here. Each block holds one molecule with its values, some of them ahead of it.
Legend:
[1] = target: BPTF; conditions: prior lead inhibitor; cited from earlier work
[2] = test system: BPTF; conditions: ITC, cited from earlier work
[3] = target: 5FW-BPTF bromodomain (Homo sapiens, UniProt Q12830); assay: SPR, 5FW-labeled His9-BPTF on NTA chip, steady-state; type: binding
[4] = target: 5FW-BPTF bromodomain (His9-tagged, 5-fluorotryptophan-labelled); assay: NMR titration

Molecule: COC(=O)c1cccc(NC(=O)NC2CCN(c3ccnc(Nc4ccc(F)cc4)n3)C2)c1 (centres unmarked) [AU1]
Kd [1]: 2.8 µM

Kd [3]: 0.25 ± 0.02 µM
Molecule: CN(C)CCCOc1ccc(-c2cc(NCCCn3cccn3)nc(S(C)(=O)=O)n2)cc1 [compound 2, TP-238]
fold weaker affinity for BPTF over CECR2 ([2]; BPTF vs CECR2): 10 fold | Kd ([2]; read-out: Reported BPTF Kd, unlabeled BPTF, thesgc.org): 0.12 µM

Kd [4]: 720 µM
Molecule: Histone variant H2AZ.1 K4ac,K11ac peptide
